# Measured values from paper PMC4222822, “Discovery and Characterization of a Potent and Selective Inhibitor of Aedes aegypti Inward Rectifier Potassium Channels” (PLoS ONE, 2014).
# What was measured:
# adenosine A1 receptor = biological target: T1, adenosine A1 receptor (Homo sapiens, UniProt P30542); assay: Radioligand displacement assay, adenosine A1 receptor; assay type: binding, mammalian; conditions: 10 µM VU625
# T1 sequence (P30542 1-326): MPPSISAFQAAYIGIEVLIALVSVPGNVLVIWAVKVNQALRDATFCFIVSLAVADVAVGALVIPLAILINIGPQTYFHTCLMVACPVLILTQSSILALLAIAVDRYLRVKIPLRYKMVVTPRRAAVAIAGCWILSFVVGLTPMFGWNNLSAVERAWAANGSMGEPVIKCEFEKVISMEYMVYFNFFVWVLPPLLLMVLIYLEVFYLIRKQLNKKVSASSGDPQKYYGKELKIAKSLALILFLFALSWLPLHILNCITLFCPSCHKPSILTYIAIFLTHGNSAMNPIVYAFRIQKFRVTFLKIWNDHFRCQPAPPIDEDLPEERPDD
# AeKir1 = AeKir1 (Aedes aegypti, UniProt L0EQS9); assay: Two-electrode electrophysiology of Xenopus oocytes expressing AeKir1; assay type: cell-based; conditions: inward current at −140 mV, 95% CI: 2.3–6.3 µM, n = 4–5 oocytes per concentration, read-out: IC50 of AeKir1 current inhibition
# AeKir1, sequence (L0EQS9 entry or part of it): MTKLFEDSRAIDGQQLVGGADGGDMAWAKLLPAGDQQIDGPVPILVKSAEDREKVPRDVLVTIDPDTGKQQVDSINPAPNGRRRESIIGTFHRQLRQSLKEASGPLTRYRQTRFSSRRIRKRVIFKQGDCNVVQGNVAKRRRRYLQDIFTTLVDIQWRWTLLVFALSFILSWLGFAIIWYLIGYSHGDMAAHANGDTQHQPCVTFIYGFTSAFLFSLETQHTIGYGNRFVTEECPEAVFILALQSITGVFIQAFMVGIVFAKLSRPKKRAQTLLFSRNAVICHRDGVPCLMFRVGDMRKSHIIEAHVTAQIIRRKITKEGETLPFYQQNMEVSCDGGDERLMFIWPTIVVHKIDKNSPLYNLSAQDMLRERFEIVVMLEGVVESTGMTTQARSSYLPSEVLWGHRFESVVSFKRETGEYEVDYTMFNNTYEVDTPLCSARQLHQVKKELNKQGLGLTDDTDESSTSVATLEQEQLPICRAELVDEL
# Description: AeKir1 and AeKir2B channels were expressed heterologously in Xenopus laevis oocytes as described previously. In brief, defolliculated Xenopus oocytes (purchased from Ecocyte Bioscience, Austin, TX) were injected with 10 ng (0.35 ng/nL) of either AeKir1 or AeKir2B cRNA and cultured for 3–7 days in OR3 media at 18°C. Oocytes injected with 28 nl of nuclease-free H2O served as controls.
# All electrophysiological experiments on Xenopus oocytes were performed at room temperature. When present, VU625 was dissolved in solution III or solution V to a final concentration of 0.1, 1, 5, 15, or 50 µM (0.05% DMSO). All solutions were delivered by gravity to a RC-3Z oocyte chamber (Warner Instruments, Hamden, CT) via polyethylene tubing at a flow rate of ∼2 ml/min. Solution changes were made with a Rheodyne Teflon 8-way Rotary valve (Model 5012, Rheodyne, Rohnert Park, CA).
# Electrophysiological recordings from oocytes were conducted as described previously In brief, each oocyte was transferred to the holding chamber under superfusion with solution I and impaled with two conventional-glass microelectrodes backfilled with 3 M KCl (resistances of 0.5–1.5 MΩ) to measure membrane potential (Vm) and whole-cell membrane current (Im), respectively. […] All Vm and Im values were recorded by a Digidata 1440A Data Acquisition System (Molecular Devices) and the Clampex module of pCLAMP. […]
# [1] = test system: adult female mosquitoes (A. aegypti); assay: Mosquito toxicology experiments (hemolymph injection); assay type: in vivo, Aedes aegypti
# Description: The Aedes aegypti mosquito colony used in the present study is identical to that described previously. As before, only adult female mosquitoes 3–10 days post emergence were utilized for experiments.
# Adult female mosquitoes for injection were anesthetized on ice and impaled through the metapleuron using a pulled-glass capillary attached to a nanoliter injector (Nanoject II, Drummond Scientific Company, Broomall, PA). Each mosquito received a single hemolymph injection of 69 nL of solution. The injection solution consisted of a potassium-rich phosphate buffered saline (K^+-PBS), 15% DMSO, 1% β-cyclodextrin, 0.1% Solutol, and a concentration of VU625 to deliver the doses indicated. In experiments where probenecid was used, water-soluble probenecid (Biotium, Hayward CA) was included in the injection solution at 50 mM, thereby providing a dose of 3.4 nmol per mosquito.
# The K^+-PBS solution consisted of the following in mM: 92.2 NaCl, 47.5 KCl, 10 Na2HPO4, and 2 KH2PO4 (pH 7.5). A total of 10 mosquitoes were injected for a given treatment or dose, and then were placed into small cages within a rearing chamber (28°C, 80% relative humidity, 12∶12 light:dark) and allowed free access to a solution of 10% sucrose. […] For each treatment, 3–7 replicates of 10 mosquitoes each were performed.
# Prism (GraphPad Software) was used to generate a dose-response curve for the toxicity of VU625; the doses (x-axis) were first log transformed and then the mortality data was normalized using Prism, where the smallest value and largest values in a data set equal ‘0%’ and ‘100%’, respectively. The data were then fitted using a ‘biphasic’ algorithm (<100 constraint) to calculate potencies (ED25 and ED75 values). To compare 1) the toxic effects among the vehicle, probenecid, VU625, and VU625 + probenecid treatments, and 2) the excretory capacity among the vehicle, probenecid, VU625, and VU625 + probenecid treatments, one-way ANOVAs were performed with Newman-Keuls posttests.
# [2] = co-injected with probenecid 3.4 nmol per mosquito, mortality at 24 h post-injection, biphasic fit
smiles,measurement,setting,value
"CCC(=O)N1c2ccc(S(=O)(=O)Nc3cccc(OC)c3)cc2CC1C (stereo not shown) [VU625, N-(3-methoxyphenyl)-2-methyl-1-propionylindoline-5-sulfonamide]",radioligand displacement,adenosine A1 receptor,76%
same,IC50,AeKir1,3.8 µM
same,effect on mosquito behavior or survival,"[1]; 690 pmol per mosquito, hemolymph injection, alone, 24 h",no significant effects on mosquito behavior or survival within 24 h
same,toxicity on co-injection with probenecid,"[1]; VU625 690 pmol + probenecid 3.4 nmol per mosquito, 24 h, vs VU625 or probenecid alone",significantly increases the toxicity of VU625 within 24 h
same,ED25 (mortality),[1]; [2],9.96 pmol
same,ED75 (mortality),[1]; [2],502 pmol
same,efficacy of VU625 with PBO,[1]; preliminary experiments with PBO,did not improve the efficacy
